Measured values published in patent publication US20230212202A1, “TREATMENT OF MGMT DEFICIENT CANCER WITH 2-FLUOROETHYL-SUBSTITUTED NITROSOUREAS AND OTHER COMPOUNDS” (YALE UNIVERSITY, priority 2021, published 2023).

Assays:
[1] = system: LN229 MGMT-/MMR+ and MGMT-/MSH6- flank tumors; experiment: Flank tumor third study: large tumors; type: in vivo, mouse; conditions: 25 mg/kg PO MWF × 3 weeks, ~350-400 mm^3 tumors
Protocol: The third study involved MGMT-/MMR+ and MGMT-/MSH6- (shMSH6) LN229 cells. Mice tumors were allowed to grow to a larger average starting volume of ~350 mm^3 before they were randomized and administered either KL-50 (4a; 25 mg/kg MWF × 3 weeks) or vehicle (10% cyclodextrin) by oral gavage. Caliper measurements were obtained during the dosing period and at least two weeks following treatment. Mice were euthanized if body weight loss exceeded 20% or if tumor volume increased to greater than 3000 mm^3.

[2] = system: γH2AX, 53BP1 and pRPA foci in LN229 MGMT+/-, MMR+/- cells; experiment: Immunofluorescence foci assays; type: cell-based, human; conditions: 20 µM
Protocol: Immunofluorescence Foci Assays. High-throughput immunofluorescence foci assays were performed at the Yale Center for Molecular Discovery (YCMD). Cells were seeded at 2000 cells/well in black polystyrene flat bottom 384-well plates (Greiner Bio-One) and allowed to adhere overnight. Compound addition was performed utilizing a Labcyte Echo 550 liquid handler (Beckman Coulter), with 6 replicates per test condition and 12 replicates per control condition. Following drug incubation, cells were fixed and stained for phospho-SER139-H2AX (yH2AX), 53BP1, or phospho-SER33-RPA2 (pRPA) as follows.
γH2AX protocol: Cells were fixed with 4% paraformaldehyde in 1X PBS for 15 min, washed twice with 1X PBS, incubated in extraction buffer (0.5% Triton X-100 in 1X PBS) for 10 min, washed twice with 1X PBS, and incubated in blocking buffer (Blocker Casein in PBS, Thermo Scientific + 5% goat serum, Life Technologies) for 1 h. Mouse anti-phospho-histone H2A.X (Ser139) antibody (clone JBW301, Millipore, 05-636) was added 1/1000 in blocking buffer at 4° C. overnight. After washing with 1X PBS, cells were incubated with goat anti-mouse IgG (H+L) highly cross-adsorbed secondary antibody, Alexa Fluor 647 (Invitrogen, A-21236) 1/500 and with 1 µg/mL Hoechst nucleic acid dye in blocking buffer for 2 h, and then washed with 1X PBS. […]

[3] = system: LN229 MGMT-/MMR+ flank tumors

NC(=O)c1ncn2c(=O)n(CCF)nnc12 [KL-50]
growth of large tumors [1]: potently suppressed the growth
γH2AX, 53BP1, pRPA foci formation ([2]; 2 to 48 h): maximal foci response at 48 h, specifically in MGMT- cells and irrespective of MMR status
DDR foci across cell cycle phases ([2]; 48 h): foci formation primarily in the S- and G2-phases
tumor growth ([3]; 5 mg/kg MWF × 3 weeks, P.O.): statistically non-inferior to TMZ (1a)
body weight ([3]; LN229 flank tumor experiments, compared to TMZ or control): no significant changes in body weight
